Laboratory results reported in US11541050B2, “Pyrimidine derivatives for the treatment of viral infections” (JANSSEN SCIENCES IRELAND UC, priority 2011, dated 2023).

Experiments:
Format in all cases: cell-based
Parameters in all cases: unit not given here
[1] = target: T1, human TLR7 (wild type sequence) (Homo sapiens, UniProt Q9NYK1); assay: TLR7 cellular NFκB-luc reporter assay, wild type TLR7; settings: lowest effective concentration, wild type TLR7
T1 construct: expressed in transfected cells; host or cells: HEK293
T1 sequence (Q9NYK1 27-1049): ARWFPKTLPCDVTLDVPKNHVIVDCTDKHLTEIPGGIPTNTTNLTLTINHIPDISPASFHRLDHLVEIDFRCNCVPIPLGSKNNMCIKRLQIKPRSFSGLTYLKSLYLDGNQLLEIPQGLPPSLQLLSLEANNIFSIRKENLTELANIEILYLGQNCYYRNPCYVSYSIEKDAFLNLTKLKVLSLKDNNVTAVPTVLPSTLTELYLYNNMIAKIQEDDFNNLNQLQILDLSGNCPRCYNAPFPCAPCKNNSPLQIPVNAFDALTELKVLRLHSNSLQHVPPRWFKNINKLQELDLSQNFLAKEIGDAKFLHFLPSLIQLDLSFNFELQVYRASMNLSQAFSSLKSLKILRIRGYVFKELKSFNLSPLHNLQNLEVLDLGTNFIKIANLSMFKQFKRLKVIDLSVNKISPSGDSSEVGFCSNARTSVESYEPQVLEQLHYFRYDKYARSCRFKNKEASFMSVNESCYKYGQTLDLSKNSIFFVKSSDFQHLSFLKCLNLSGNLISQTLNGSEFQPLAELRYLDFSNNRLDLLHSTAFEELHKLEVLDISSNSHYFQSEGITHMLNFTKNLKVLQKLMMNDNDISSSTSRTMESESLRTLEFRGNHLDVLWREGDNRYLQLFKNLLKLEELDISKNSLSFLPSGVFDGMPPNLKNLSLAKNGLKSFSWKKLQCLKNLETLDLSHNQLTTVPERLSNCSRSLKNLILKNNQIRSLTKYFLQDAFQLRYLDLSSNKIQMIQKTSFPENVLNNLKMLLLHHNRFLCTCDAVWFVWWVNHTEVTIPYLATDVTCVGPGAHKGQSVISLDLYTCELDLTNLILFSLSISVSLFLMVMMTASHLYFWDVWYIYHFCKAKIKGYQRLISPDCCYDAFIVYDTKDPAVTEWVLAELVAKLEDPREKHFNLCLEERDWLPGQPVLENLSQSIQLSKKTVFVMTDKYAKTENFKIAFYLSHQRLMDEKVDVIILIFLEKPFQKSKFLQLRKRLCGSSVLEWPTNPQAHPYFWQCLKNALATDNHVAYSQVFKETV
Outline: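 First, HEK293 cells were co-transfected with TLR7 or TLR8 (native or LRR2-deletion) and NFκB-luc and cultured 48 h. Next, cells were incubated with compound for 6 h at 37 °C. Finally, luciferase was read; LEC came from dose-response curves run in quadruplicate.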

[2] = test system: human TLR7 mutant sequence comprising a deletion in the second leucine-rich repeat; assay: TLR7 cellular NFκB-luc reporter assay, mutant TLR7 with deletion in the second leucine-rich repeat; settings: lowest effective concentration
Protocol: (§1) The ability of compounds to activate human TLR7 and/or TLR8 was assessed in a cellular reporter assay using HEK293 cells transiently transfected with a TLR7 or TLR8 expression vector and NFκB-luc reporter construct. In one instance the TLR expression construct expresses the respective wild type sequence or a mutant sequence comprising a deletion in the second leucine-rich repeat of the TLR.
(§2) Briefly, HEK293 cells were grown in culture medium (DMEM supplemented with 10% FCS and 2 mM Glutamine). For transfection of cells in 10 cm dishes, cells were detached with Trypsin-EDTA, transfected with a mix of CMV-TLR7 or TLR8 plasmid (750 ng), NFκB-luc plasmid (375 ng) and a transfection reagent and incubated for 48 hours at 37° C. in a humidified 5% CO2 atmosphere. […] Thirty microliters of cells were then dispensed into each well in 384-well plates, where 10 μL of compound in 4% DMSO was already present. Following 6 hours incubation at 37° C., 5% CO2, the luciferase activity was determined by adding 15 μl of Steady Lite Plus substrate (Perkin Elmer) to each well and readout performed on a ViewLux ultraHTS microplate imager (Perkin Elmer). Dose response curves were generated from measurements performed in quadruplicates.

[3] = test system: human TLR8 mutant sequence comprising a deletion in the second leucine-rich repeat; assay: TLR8 cellular NFκB-luc reporter assay, mutant TLR8 with deletion in the second leucine-rich repeat; settings: lowest effective concentration
Protocol: as §1, §2

| Compound | TLR7-wt_LEC [1] | TLR7-dIRR2_LEC [2] | TLR8-dIRR2_LEC [3] |
| --- | --- | --- | --- |
| CCCC[C@@H](CCO)Nc1nc(N)ncc1OCCCc1ccc(OC)cc1 [Compound 225] | 0.385 | 2.180 | 0.129 |
| CCC[C@@H](CCO)Nc1nc(N)ncc1OCCCc1ccc(OC)cc1 [Compound 226] | 0.274 | 1.050 | 0.036 |
| CCC[C@@H](CCO)Nc1nc(N)ncc1OCc1cccc(C)n1 [Compound 227] | 0.170 | 0.717 | 0.030 |
| CCCC[C@@H](CO)Nc1nc(N)ncc1OCCCc1ccc2c(c1)OCO2 [Compound 228] | 1.410 | 1.510 | 0.112 |
| CCCCNc1nc(N)ncc1OCCN(Cc1ccccc1)C(=O)OCC [Compound 230] | 0.593 | 3.470 | 0.138 |
| CCC[C@@H](CCO)Nc1nc(N)ncc1OCc1nccc2ccccc12 [Compound 231] | 0.001 | 0.052 | <0.001 |
| CCCCNc1nc(N)ncc1OCCNC(=O)OCC [Compound 232] | 0.967 | 1.680 | 0.110 |
| CCCCNc1nc(N)ncc1OCCOC(C)C [Compound 234] | 1.850 | 1.170 | 0.464 |
| CCCCNc1nc(N)ncc1OCC1CCOC1 (stereo not drawn) [Compound 235] | >25 | 10.410 | 1.890 |
| CCCCNc1nc(N)ncc1OCc1ccc2cccnc2n1 [Compound 236] | 0.241 | 0.333 | 0.031 |
| CCCC[C@@H](CCO)Nc1nc(N)ncc1OCc1cc(C)n(C)n1 [Compound 237] | 0.156 | 1.830 | 0.051 |
| CCC[C@@H](CCO)Nc1nc(N)ncc1OCCCc1ccc2c(c1)OCO2 [Compound 238] | 0.234 | 1.920 | 0.091 |
| CCC[C@@H](CO)Nc1nc(N)ncc1OCc1ccccn1 [Compound 239] | 0.464 | 0.247 | 0.145 |
| CCCC[C@@H](CCO)Nc1nc(N)ncc1OCc1nn(C)c2ccccc12 [Compound 240] | 0.008 | 0.442 | 0.005 |
| CCCC[C@@H](CCO)Nc1nc(N)ncc1OCc1ncccc1OC [Compound 241] | 0.008 | 0.304 | 0.004 |
| CCCC[C@@H](CCO)Nc1nc(N)ncc1OCc1ncc(C)c(O)c1C [Compound 242] | 5.400 | 3.010 | 0.006 |
| CCCC[C@@H](CO)Nc1nc(N)ncc1OCc1ccccn1 [Compound 243] | 0.343 | 0.103 | 0.190 |

| Compound | TLR7-wt_LEC [1] | TLR7-dIRR2_LEC [2] | TLR8-dIRR2_LEC [3] |
| --- | --- | --- | --- |
| CCCC[C@@H](CCO)Nc1nc(N)ncc1OCCCc1ccc2c(c1)OCO2 [Compound 244] | 0.202 | 1.400 | 0.104 |
| CCCC[C@@H](CCO)Nc1nc(N)ncc1OCc1nccc(OC)c1OC [Compound 245] | 0.040 | 0.507 | 0.011 |
| CCC[C@@H](CCO)Nc1nc(N)ncc1OCc1cc(C)n(C)n1 [Compound 246] | 0.157 | 1.150 | 0.048 |
| CCCC[C@@H](CCO)Nc1nc(N)ncc1OCc1cncn1[C@@H](C)c1ccccc1 [Compound 247] | 12.390 | 8.240 | 3.200 |
| C#CCOc1cnc(N)nc1NCCCC [Compound 248] | 2.120 | 0.654 | 0.529 |
| CCC[C@@H](CCO)Nc1nc(N)ncc1OCc1cc2ccccc2cn1 [Compound 249] | 0.039 | 0.172 | 0.036 |
| CCCC[C@@H](CCOC(=O)C(C)C)Nc1nc(N)ncc1OC [Compound 250] | 0.724 | 3.250 | 0.580 |
| CCC[C@H](C)Nc1nc(N)ncc1OCc1cn2ccccc2n1 [Compound 251] | 0.164 | 0.556 | 0.087 |
| CCC[C@@H](C)Nc1nc(N)ncc1OCc1nccc(OC)c1OC [Compound 252] | 4.020 | >25 | 1.310 |
| CCC[C@@H](C)Nc1nc(N)ncc1OCc1cn2ccccc2n1 [Compound 253] | 12.760 | >25 | 6.230 |
| CCC[C@@H](CO)Nc1nc(N)ncc1OCc1cc(C)nn1C [Compound 254] | 1.770 | 0.467 | 0.364 |
| CCCC[C@@H](CO)Nc1nc(N)ncc1OCc1cc(C)n(C)n1 [Compound 255] | 0.552 | 0.515 | 0.315 |
| CCC[C@@H](CO)Nc1nc(N)ncc1OCc1cccc(C(N)=O)n1 [Compound 256] | 1.630 | 0.100 | 0.039 |
| CCC[C@@H](CO)Nc1nc(N)ncc1OCc1cc(C)n(C)n1 [Compound 257] | 0.697 | 0.444 | 0.304 |
| CCC[C@@H](CO)Nc1nc(N)ncc1OCc1cc2ccccc2cn1 [Compound 258] | 0.074 | 0.153 | 0.060 |
| CCCC[C@@H](CO)Nc1nc(N)ncc1OCc1cccc(C(=O)O)n1 [Compound 259] | 6.980 | 3.150 | 1.250 |
| CCC[C@@H](CO)Nc1nc(N)ncc1OCc1cccc(C(=O)O)n1 [Compound 260] | 4.850 | 2.830 | >8.14 |
